This is an account of results in article PMC12072202, “Identification of Novel HPK1 Hit Inhibitors: From In Silico Design to In Vitro Validation” (International Journal of Molecular Sciences, 2025).

For this assay, the target named is T1, human recombinant active HPK1 (Homo sapiens, UniProt Q92918).
T1 construct: purchased Reaction Biology Corp., Malvern, PA, USA (contract assay)
In words: radiometric HotSpot kinase assay (33P-ATP, myelin basic protein substrate). In kind it is biochemical. The following applies: for inhibition at 25 µM: 25 µM compound; for inhibition at 25 µM / inhibition at 50 µM: duplicate; for inhibition at 50 µM: 50 µM compound. The procedure: The in vitro inhibitory activity of the fifteen purchased compounds against recombinant human HPK1 was evaluated using a radiometric HotSpot^TM kinase assay. The results were expressed as a percentage of the remaining kinase activity relative to its activity in negative control reactions (DMSO). […] Six hits (ISR-03, ISR-04, ISR-05, ISR-10, ISR-13, and ISR-11) were selected for IC50 value determination.
The selected compounds were purchased from ASINEX (ASINEX, Amsterdam, The Netherlands) and OTAVA lead-like (OTAVA Ltd., Vaughan, ON, Canada) via local vendors. […] In brief, this assay was performed by preparing the kinase substrate (myelin basic protein) with a concentration of 20 µM in freshly prepared base reaction buffer (20.0 mM Hepes (pH 7.5), 10.0 mM MgCl2, 1.0 mM EGTA, 0.01% Brij35, 0.02 mg/mL BSA, 0.1 mM Na3VO4, 2.0 mM DTT, and 1% DMSO). Then, the kinase enzyme was delivered into the substrate solution by gently mixing, followed by adding the tested compounds dissolved in 100% DMSO using the Echo550 liquid handler and incubated for 20 min at room temperature. Finally, the reaction was initiated by the addition of ^33P-γ-ATP with a concentration of 10.0 µM and incubated for 2 h at room temperature. The percentage of kinase activity was detected using the P81 filter-binding method. For IC50 determination, the compounds’ inhibitory activity was tested at 10 concentrations (100 µM, 33.3 µM, 11.10 µM, 3.70 µM, 1.23 µM, 0.412 µM, 0.137 µM, 45.70 nM, 15.20 nM, and 5.08 nM) in one independent experiment in duplicate mode and prepared using 3-fold serial dilutions. The percentage of remaining kinase activity in tested samples was determined first, and then Prism GraphPad software version 10.2.0 (nonlinear regression/variable slope) was used to obtain the IC50 values and curve fits.

Setting [1] is: 10 concentrations, 3-fold dilution from 100 µM, 10 µM ATP, mean ± SD where given, read-out: IC50.
The mark [2] stands for this setting: Prism fit table of single inhibition curve (A/B replicate), Figure 3, unit inferred, read-out: EC50 (the source's name).

The inhibition is the change of the read-out against control, counted positive when it falls.

Where “and” joins values, the source holds several entries; their conditions need not be identical. Identical values can stand only once. Like-named read-outs stand apart in the source and are kept apart here.

T1 sequence (Q92918 whole entry): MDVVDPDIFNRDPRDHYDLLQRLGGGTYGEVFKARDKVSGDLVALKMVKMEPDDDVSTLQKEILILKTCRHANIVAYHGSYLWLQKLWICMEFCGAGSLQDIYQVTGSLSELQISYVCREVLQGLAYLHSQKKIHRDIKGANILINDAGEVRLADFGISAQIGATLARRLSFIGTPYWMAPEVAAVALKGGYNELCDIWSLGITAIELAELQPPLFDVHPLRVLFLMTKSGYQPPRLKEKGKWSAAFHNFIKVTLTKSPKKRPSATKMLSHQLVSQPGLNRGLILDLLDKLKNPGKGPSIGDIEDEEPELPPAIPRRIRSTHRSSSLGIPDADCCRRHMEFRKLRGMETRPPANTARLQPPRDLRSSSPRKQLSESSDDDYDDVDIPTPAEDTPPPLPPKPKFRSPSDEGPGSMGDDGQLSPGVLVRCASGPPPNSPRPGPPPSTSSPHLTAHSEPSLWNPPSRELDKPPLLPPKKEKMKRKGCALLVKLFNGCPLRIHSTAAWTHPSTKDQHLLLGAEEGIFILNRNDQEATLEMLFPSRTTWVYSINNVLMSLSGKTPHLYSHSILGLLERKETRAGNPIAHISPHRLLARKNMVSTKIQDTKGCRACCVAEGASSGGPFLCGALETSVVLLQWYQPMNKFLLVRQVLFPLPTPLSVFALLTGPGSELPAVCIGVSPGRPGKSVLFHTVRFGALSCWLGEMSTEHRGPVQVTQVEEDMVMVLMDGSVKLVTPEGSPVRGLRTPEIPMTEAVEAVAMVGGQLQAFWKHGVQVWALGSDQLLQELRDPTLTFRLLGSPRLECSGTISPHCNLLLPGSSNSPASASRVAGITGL

`CCCNC(=O)c1cc2c(=O)n3cccc(C)c3nc2s1` [ISR-04]: under “10 µM ATP”, the inhibition at 25 µM was found to be 2.44% and the inhibition at 50 µM stood at 10.1%. For the same compound, under setting [1], the IC50 is > 100 µM.

For the compound `Cc1cccn2c(=O)c3cc(C(=O)Nc4ccccc4C(N)=O)sc3nc12` [ISR-05], where the note is “10 µM ATP”, the inhibition at 25 µM stood at 0% and the inhibition at 50 µM turned out to be 13.9%. Besides, the IC50 under setting [1] amounted to 24.2 µM. For the same compound, the IC50 under setting [2] was 20.6 µM and 27.7 µM.

On to `COc1ccc2[nH]c(=O)c(CNc3ccccc3NC(C)=O)cc2c1` [ISR-03], for which, for the setting “10 µM ATP”, the inhibition at 25 µM was found to be 26.6% and the inhibition at 50 µM is 52.4%. Moreover, the IC50 under setting [1] is 43.9 µM. The IC50 under setting [2] is 44 µM and 43.8 µM.
